The values that follow come from patent publication US5700804A, “Pharmaceutical compounds” (Xenova Limited, priority 1992, dated 1997).

The target in this assay is PAI-1 (Homo sapiens, UniProt P05121). Briefly: PAI chromogenic substrate assay (first S2251 assay, tPA/plasminogen system). Format: biochemical. Here is the method: In this assay, a compound is incubated with PAI-1 prior to addition to the tPA assay system. Inhibition of PAI-1 results in the production of plasmin from plasminogen. In turn, plasmin cleaves the chromogenic substrate S2251 (Kabi Vitrum) producing pNA (p-nitroaniline) which is detected spectrophotometrically at 405 nm (K. Nilsson et al, Fibrinolysis (1987) 1, 163-168).
Sequence of PAI-1 (P05121 24-402): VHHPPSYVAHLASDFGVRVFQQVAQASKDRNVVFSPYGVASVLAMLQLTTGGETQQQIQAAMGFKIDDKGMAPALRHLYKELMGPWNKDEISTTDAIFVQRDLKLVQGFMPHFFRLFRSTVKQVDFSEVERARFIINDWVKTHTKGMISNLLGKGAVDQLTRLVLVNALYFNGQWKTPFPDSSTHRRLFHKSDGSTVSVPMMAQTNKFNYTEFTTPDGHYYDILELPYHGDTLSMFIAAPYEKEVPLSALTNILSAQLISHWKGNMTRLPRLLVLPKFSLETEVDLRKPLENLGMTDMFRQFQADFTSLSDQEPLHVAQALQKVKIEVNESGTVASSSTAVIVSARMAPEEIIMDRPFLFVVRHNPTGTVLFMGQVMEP
Compounds of formula (A) were tested in a PAI chromogenic substrate assay. In the first assay (K. Nilsson, Fibrinolysis (1987) 1, 163-168) each compound was incubated with PAI-1 prior to addition to the tPA assay system. […] In turn, the plasmin cleaved the chromogenic substrate S2251 (Kabi-Vitrum) producing pNA (p-nitroaniline) which was detected spectrophotometrically at 405 nm.

The compound `CCCCOc1ccc(/C=c2\[nH]c(=O)/c(=C/c3ccc(OC)cc3)[nH]c2=O)cc1` [Compound 47, (3Z,6Z)-3-(4-Butoxybenzylidene)-6-(4-methoxybenzylidene)-2,5-piperazinedione] registered an Inhibition of PAI-1 in the first S2251 chromogenic substrate assay (Concentration 12.5 μm) of 14%, an Inhibition of PAI-1 in the first S2251 chromogenic substrate assay (Concentration 25 μm) of 14%, an Inhibition of PAI-1 in the first S2251 chromogenic substrate assay (Concentration 50 μm) of 58% and an Inhibition of PAI-1 in the first S2251 chromogenic substrate assay (Concentration 100 μm) of 75%.
Turning to `CCCCOc1ccc(/C=c2\[nH]c(=O)/c(=C/c3ccccc3)[nH]c2=O)cc1` [Compound 48, (3Z,6Z)-6-Benzylidene-3-(4-butoxybenzylidene)-2,5-piperazinedione], the Inhibition of PAI-1 in the first S2251 chromogenic substrate assay is 3% (Concentration 12.5 μm), 26% (Concentration 25 μm), 57% (Concentration 50 μm) and 73% (Concentration 100 μm).
`COc1ccc(/C=c2\[nH]c(=O)/c(=C/c3ccc(OC(C)C)cc3)[nH]c2=O)cc1` [Compound 49, (3Z,6Z)-3-(4-isopropoxybenzylidene)-6-(4-methoxybenzylidene)-2,5-piperazinedione]: the Inhibition of PAI-1 in the first S2251 chromogenic substrate assay (Concentration 12.5 μm) worked out at 1%, the Inhibition of PAI-1 in the first S2251 chromogenic substrate assay (Concentration 25 μm) is 8%, the Inhibition of PAI-1 in the first S2251 chromogenic substrate assay (Concentration 50 μm) was 47% and the Inhibition of PAI-1 in the first S2251 chromogenic substrate assay (Concentration 100 μm) is 60%.
Regarding `COc1ccc(/C=c2\[nH]c(=O)/c(=C/c3ccc(C(C)(C)C)cc3)[nH]c2=O)cc1` [Compound 50, (3Z,6Z)-3-(4-methoxybenzylidene)-6-(4-tert-butylbenzylidene)-2,5-piperazinedione], the Inhibition of PAI-1 in the first S2251 chromogenic substrate assay is, setting by setting: (Concentration 12.5 μm) 2%; (Concentration 25 μm) 22%; (Concentration 50 μm) 37%; (Concentration 100 μm) 62%.
With `CC(C)(C)c1ccc(/C=c2\[nH]c(=O)/c(=C/c3ccccc3)[nH]c2=O)cc1` [Compound 51, (3Z,6Z)-6-Benzylidene-3-(4-tert-butylbenzylidene)-2,5-piperazinedione], the Inhibition of PAI-1 in the first S2251 chromogenic substrate assay (Concentration 12.5 μm) worked out at 5%, the Inhibition of PAI-1 in the first S2251 chromogenic substrate assay (Concentration 25 μm) was 38%, the Inhibition of PAI-1 in the first S2251 chromogenic substrate assay (Concentration 50 μm) was 61% and the Inhibition of PAI-1 in the first S2251 chromogenic substrate assay (Concentration 100 μm) amounted to 79%.
On the same counts, the results for `CC(C)Oc1ccc(/C=c2\[nH]c(=O)/c(=C/c3ccccc3)[nH]c2=O)cc1` [Compound 52, (3Z,6Z)-6-Benzylidene-3-(4-isopropoxybenzylidene)-2,5-piperazinedione] are 2%, 15%, 45% and 68%.
For the compound `COc1ccc(/C=c2\[nH]c(=O)/c(=C/c3ccccc3Br)[nH]c2=O)cc1` [Compound 53, (3Z,6Z)-3-(2-Bromobenzylidene)-6-(4-methoxybenzylidene)-2,5-piperazinedione], the Inhibition of PAI-1 in the first S2251 chromogenic substrate assay is 2% (Concentration 12.5 μm), 9% (Concentration 25 μm), 32% (Concentration 50 μm) and 55% (Concentration 100 μm).
As for `O=c1[nH]/c(=C\c2ccc(F)cc2F)c(=O)[nH]/c1=C\c1ccccc1` [Compound 54, (3Z,6Z)-6-Benzylidene-3-(2,4-difluorobenzylidene)-2,5-piperazinedione], the Inhibition of PAI-1 in the first S2251 chromogenic substrate assay worked out at 0% (Concentration 12.5 μm), 1% (Concentration 25 μm), 0% (Concentration 50 μm) and 50% (Concentration 100 μm).
As for `O=c1[nH]/c(=C\c2ccccc2Br)c(=O)[nH]/c1=C\c1ccccc1` [Compound 55, (3Z,6Z)-6-Benzylidene-3-(2-bromobenzylidene)-2,5-piperazinedione], the Inhibition of PAI-1 in the first S2251 chromogenic substrate assay is, setting by setting: (Concentration 12.5 μm) 1%; (Concentration 25 μm) 11%; (Concentration 50 μm) 43%; (Concentration 100 μm) 65%.
For the compound `COc1ccc(/C=c2\[nH]c(=O)/c(=C/c3ccc(CNC(=O)OC(C)(C)C)cc3)[nH]c2=O)cc1` [Compound 56, (3Z,6Z)-(4-Methoxybenzylidene)-6-(4-tert-butoxycarbonylaminomethylbenzylidene)-2,5-piperazinedione], the Inhibition of PAI-1 in the first S2251 chromogenic substrate assay by setting is: (Concentration 12.5 μm) 2%; (Concentration 25 μm) 15%; (Concentration 50 μm) 60%; (Concentration 100 μm) 82%.
In turn, `COc1ccc(/C=c2\[nH]c(=O)/c(=C/c3ccc(CSC)cc3)[nH]c2=O)cc1` [Compound 57, (3Z,6Z)-3-(4-Methoxybenzylidene)-6-(4-methylthiomethylbenzylidene)-2,5-piperazinedione] displayed an Inhibition of PAI-1 in the first S2251 chromogenic substrate assay (Concentration 12.5 μm) of 2%, an Inhibition of PAI-1 in the first S2251 chromogenic substrate assay (Concentration 25 μm) of 38%, an Inhibition of PAI-1 in the first S2251 chromogenic substrate assay (Concentration 50 μm) of 72% and an Inhibition of PAI-1 in the first S2251 chromogenic substrate assay (Concentration 100 μm) of 82%.
For `CC(=O)Nc1ccc(/C=c2\[nH]c(=O)/c(=C/c3ccc(COC(C)=O)cc3)[nH]c2=O)cc1` [Compound 58, (3Z,6Z)-3-(4-Acetamidobenzylidene)-6-(4-acetoxymethylbenzylidene)-2,5-piperazinedione] the same measures were 1%, 1%, 31% and 60%.
On the same counts, the results for `CSCc1ccc(/C=c2\[nH]c(=O)/c(=C/c3ccccc3)[nH]c2=O)cc1` [Compound 59, (3Z,6Z)-6-Benzylidene-3-(4-methylthiomethylbenzylidene)-2,5-piperazinedione] are 19%, 60%, 76% and 71%.
For `COc1ccc(/C=c2\[nH]c(=O)/c(=C/c3ccc(CS(C)(=O)=O)cc3)[nH]c2=O)cc1` [Compound 60, (3Z,6Z)-3-(4-Methoxybenzylidene)-6-(4-methylsulfonylmethylbenzylidene)-2,5-piperazinedione] the same measures were 1%, 25%, 52% and 62%.
On to `CC(=O)SCc1cccc(/C=c2\[nH]c(=O)/c(=C/c3ccccc3)[nH]c2=O)c1` [Compound 61, (3Z,6Z)-6-Benzylidene-3-(3-thioacetoxymethylbenzylidene)-2,5-piperazinedione], for which the Inhibition of PAI-1 in the first S2251 chromogenic substrate assay by setting is: (Concentration 12.5 μm) 26%; (Concentration 25 μm) 69%; (Concentration 50 μm) 88%; (Concentration 100 μm) 83%.
